What was measured:
IBS patients with RLS [1] = assay: Follow-up lactulose breath test (LBT); format: in vivo, human; conditions: neurology patient, two months after completing rifaximin therapy
Description: Patients consumed a low carbohydrate dinner and fasted overnight. Breath samples were collected every 15 minutes for 180 minutes and were analyzed by gas chromatography (using, for example, a QUINTRON DP PLUS MICROLYZER™ manufactured by QuinTron Instrument Company, Milwaukee, Wis.) for levels of hydrogen and methane. After a baseline recording, patients consumed 10 g of lactulose powder (for example, KRISTALOSE® produced by Bertek Pharmaceuticals Inc, Sugar Land, Tex.) dissolved in 240 mL of water. An abnormal LBT result was defined as an increase of greater than 20 ppm above baseline levels for hydrogen and/or methane gas 180 minutes or less after ingesting lactulose. An abnormal flatline LBT result was defined as a lack of a greater than 5-ppm increase above baseline levels for either hydrogen or methane during the 180-minute test. The role of SIBO in IBS and diseases other than restless legs syndrome, as well as the efficacy of breath tests in the diagnosis of SIBO is discussed in U.S. Pat. Nos. 6,861,053; 6,805,852; 7,056,686; and 7,048,906 to Lin and Pimentel, the disclosures of each of which are expressly incorporated by reference herein.

IBS patients with RLS [2] = assay: Open-label, observational pilot trial: GI (IBS) symptom improvement questionnaire; format: in vivo, human
Excerpt: (§1) Patients visiting a community-based adult gastroenterology clinic over a 4-month period were eligible for the study if they presented with functional bowel symptoms and had abnormal lactulose breath test (LBT) results. Patients were excluded if they had celiac disease, Crohn's disease, pancreatic insufficiency, ulcerative colitis, scleroderma, diabetes, chronic renal failure, or surgeries predisposing them to SIBO. A diagnosis of RLS was confirmed using the Johns Hopkins validated interview process.
(§2) This was followed by long-term administration of the prokinetic medicine tegaserod (ZELNORM® produced by Novartis Pharmaceuticals Corporation, East Hanover, N.J.) 3 mg nightly plus short-term treatment with zinc 220 mg/d for one month for increased small intestinal permeability and a bifidobacteria-based probiotic (FLORA-Q® produced by Kenwood Therapeutics, Fairfield, N.J.) once daily for one month. Two patients were treated with rifaximin alone.
Each patient completed a questionnaire identifying the occurrence and rating the severity of six IBS symptoms experienced during the week before the LBT was conducted (baseline): abdominal pain, bloating, constipation, diarrhea, flatulence, and postprandial fullness. A history consistent with RLS and fibromyalgia was sought. Serum ferritin levels were measured at baseline.
(§3) The percentage of RLS symptom improvement was assessed at the end of follow-up.
(§4) The remaining two patients (the neurology clinic patient and propositus) received a modified treatment regimen.
Percentages of RLS and IBS symptom improvement as well as global IBS symptom improvement were assessed at a mean of 107 days (range, 22-450 days). […] The ten patients who responded included the three patients who had borderline or low serum levels of iron at baseline. […] Eight of the ten patients with at least 80% improvement in RLS symptoms were followed long-term (mean, 139 days; range, 54-450 days), and 5 of the 8 patients reported complete (100%) resolution of RLS symptoms at the last follow-up visit.

[3] = cited from earlier work
IBS patients with RLS [4] = assay: Open-label, observational pilot trial: RLS symptom improvement; format: in vivo, human
Excerpt: It was suspected that the patient might have postinfectious IBS and SIBO.
as §1, §2, §3
Thirteen IBS patients with confirmed RLS were included in the study. Eleven of these 13 patients were originally included in a SIBO study of IBS: 19 of 161 patients with an abnormal LBT result thought they had RLS. A diagnosis of RLS was confirmed in 11 of these 19 patients by the Johns Hopkins validated interview process. The remaining 2 of 13 patients with RLS (1 was the propositus and the other was referred from a neurology clinic) had been previously evaluated and treated for RLS by a neurologist.
as §4
Percentages of RLS and IBS symptom improvement as well as global IBS symptom improvement were assessed at a mean of 107 days (range, 22-450 days). […] The ten patients who responded included the three patients who had borderline or low serum levels of iron at baseline. […]

[5] = day 11, after ten days of rifaximin therapy
[6] = end of follow-up (mean 107 days), rifaximin followed by tegaserod, zinc, probiotic in 11 of 13
[7] = last follow-up visit, 13 patients

## CO[C@H]1/C=C/O[C@@]2(C)Oc3c(C)c(O)c4c(O)c(c5c(nc6cc(C)ccn65)c4c3C2=O)NC(=O)/C(C)=C\C=C\[C@H](C)[C@H](O)[C@@H](C)[C@@H](O)[C@@H](C)[C@H](OC(C)=O)[C@@H]1C [rifaximin]
IBS patients with RLS [1]
  LBT result after therapy: normal
IBS patients with RLS [2]; [5]
  GI symptom improvement: abdominal pain: 74%
  GI symptom improvement: bloating: 70%
  GI symptom improvement: constipation: 64%
  GI symptom improvement: diarrhea: 73%
  GI symptom improvement: flatulence: 47%
  GI symptom improvement: postprandial fullness: 65%
IBS patients with RLS [2]; [6]
  GI symptom improvement: abdominal pain: 81%
  GI symptom improvement: bloating: 76%
  GI symptom improvement: constipation: 59%
  GI symptom improvement: diarrhea: 68%
  GI symptom improvement: flatulence: 55%
  GI symptom improvement: postprandial fullness: 67%
IBS patients with RLS [2]; [7]
  global symptom improvement rated as greatly improved: 6 patients
  global symptom improvement rated as mildly improved: two
  global symptom improvement rated as moderately improved: five
[3]
  solubility in water: practically insoluble in water
IBS patients with RLS [4]; of 8 responders followed long-term (mean 139 days; range 54-450 days)
  patients reporting complete (100%) resolution of RLS symptoms at the last follow-up visit: 5 of the 8
IBS patients with RLS [4]; rifaximin 400 mg three times daily for ten days, in 11 of 13 followed by tegaserod, zinc, probiotic, assessed at mean 107 days (range 22-450)
  patients exhibiting at least 80% improvement in RLS symptoms at the last follow-up visit: Ten of 13
IBS patients with RLS [4]; single patient (propositus), empiric treatment with rifaximin
  response for both RLS and IBS symptoms: dramatic, rapid, and prolonged response

Reference: patent publication US20080159987A1 (priority 2007, published 2008)
